# Assays:
# β-lactamase TEM1 = biological target: T1, β-lactamase TEM1 (Escherichia coli, UniProt P62593); test: Inhibition of isolated β-lactamase Tem-1 (Nitrocefin hydrolysis); assay type: biochemical, E.coli 250HT21; settings: 100 μM Nitrocefin, 50 mM sodium phosphate buffer pH7.0, 37° C.
# T1 construct: The β-lactamases are isolated from bacterial strains which are resistant to penicillins and cephalosporins; endogenous in cells; host or cells: E. coli 250HT21 (natural producer; French-press lysate, 100,000 g supernatant)
# T1 sequence (P62593 24-286 limits assumed): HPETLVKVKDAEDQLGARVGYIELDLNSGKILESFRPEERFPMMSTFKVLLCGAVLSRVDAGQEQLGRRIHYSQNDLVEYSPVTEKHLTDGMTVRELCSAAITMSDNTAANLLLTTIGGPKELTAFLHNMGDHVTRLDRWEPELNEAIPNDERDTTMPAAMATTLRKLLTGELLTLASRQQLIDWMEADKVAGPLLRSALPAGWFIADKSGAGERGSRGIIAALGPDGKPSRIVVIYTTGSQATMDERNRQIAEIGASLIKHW
# In short: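 TEM-1 from soluble extract of E. coli 250HT21, normalized enzyme, 100 μM Nitrocefin in 50 mM sodium phosphate pH 7.0 at 37 °C. Initial-rate hydrolysis read kinetically at 485 nm, with and without 5 min enzyme–inhibitor preincubation. CI50 from 6 or 8 concentrations in duplicate.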
# β-lactamase P99 = biological target: T2, β-lactamase P99 (Enterobacter cloacae, UniProt P05364); test: biochemical; settings: 100 μM Nitrocefin, 50 mM sodium phosphate buffer pH7.0, 37° C.; read-out: IC50 nM/P99
# T2 construct: The β-lactamases are isolated from bacterial strains which are resistant to penicillins and cephalosporins; endogenous in cells; host or cells: Enterobacter cloacae 293HT6 (natural producer; French-press lysate, 100,000 g supernatant)
# T2 sequence (P05364 21-381): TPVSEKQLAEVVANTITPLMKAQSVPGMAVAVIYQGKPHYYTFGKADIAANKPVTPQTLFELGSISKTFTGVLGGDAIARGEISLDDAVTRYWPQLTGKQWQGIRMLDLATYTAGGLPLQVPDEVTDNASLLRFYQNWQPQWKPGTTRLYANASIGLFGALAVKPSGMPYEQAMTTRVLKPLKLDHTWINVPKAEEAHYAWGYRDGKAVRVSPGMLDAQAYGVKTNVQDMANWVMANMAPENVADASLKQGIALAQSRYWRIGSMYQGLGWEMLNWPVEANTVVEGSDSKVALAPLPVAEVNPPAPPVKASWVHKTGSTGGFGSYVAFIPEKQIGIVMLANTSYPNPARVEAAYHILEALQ
# In short: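 P99 β-lactamase, taken from the soluble fraction of an Enterobacter cloacae 293HT6 lysate, was assayed at 37° C. in 50 mM sodium phosphate buffer pH7.0 with 100 μM Nitrocefin as the chromogenic substrate. Hydrolysis was followed kinetically at 485 nm at initial speed, with and without a 5 mn enzyme–inhibitor preincubation. Inhibitors were tested at 6 or 8 concentrations in duplicate, and IC50 was fitted with GraFit.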
# E. coli 250CF1 (Tem3) = test: microbe, parasite or virus in culture; assay type: cell-based; settings: compound at 5 mg/l, 24 hours at 37° C.; for MIC of Cefotaxime in combination with the compound: Trial 4, 250CF1 E. coli Tem3; for MIC of Piperacillin in combination with the compound: Trial 4, 250CF1 Tem3
# In short: (§1)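 Strains were seeded into liquid-medium dilutions of β-lactamine, each supplemented with a fixed 5 mg/l of test compound, and held 24 hours at 37° C in a heating chamber. Minimal inhibitory concentration was the level at which bacterial development was wholly absent.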
# [1] = tested on: E. cloacae 293HT6 (Class C); test: MIC, micro-dilution in liquid medium, β-lactamine with product at 5 mg/l; assay type: cell-based; settings: compound at 5 mg/l, 24 hours at 37° C.; for MIC of Piperacillin in combination with the compound: Trial 9, 293HT6 Class; for MIC of Cefotaxime in combination with the compound: Trial 9, 293HT6 E. cloacae Class C
# In short: as §1
# E. coli 250BE1 (SHV4) = test: as above; assay type: cell-based; settings: compound at 5 mg/l, 24 hours at 37° C.; for MIC of Cefotaxime in combination with the compound: Trial 7, 250BE1 E. coli SHV4; for MIC of Piperacillin in combination with the compound: Trial 7, 250BE1 SHV4
# In short: as §1
# E. coli 250HT21 (Tem1) = test: as above; assay type: cell-based; settings: compound at 5 mg/l, 24 hours at 37° C.; for MIC of Cefotaxime in combination with the compound: Trial 2, 250HT21 E. coli Tem1; for MIC of Piperacillin in combination with the compound: Trial 2, 250HT21 Tem1
# In short: as §1
# E. coli 250HT22 (Tem2) = test: as above; assay type: cell-based; settings: compound at 5 mg/l, 24 hours at 37° C.; for MIC of Cefotaxime in combination with the compound: Trial 3, 250HT22 E. coli Tem2; for MIC of Piperacillin in combination with the compound: Trial 3, 250HT22 Tem2
# In short: as §1
# [2] = tested on: E. coli 250HT23 (Class D); test: as above; assay type: cell-based; settings: compound at 5 mg/l, 24 hours at 37° C.; for MIC of Piperacillin in combination with the compound: Trial 8, 250HT23 Class D; for MIC of Cefotaxime in combination with the compound: Trial 8, 250HT23 E. coli Class D
# In short: as §1
# E. coli 250HT26 (SHV1) = test: as above; assay type: cell-based; settings: compound at 5 mg/l, 24 hours at 37° C.; for MIC of Cefotaxime in combination with the compound: Trial 6, 250HT26 E. coli SHV1; for MIC of Piperacillin in combination with the compound: Trial 6, 250HT26 SHV1
# In short: as §1
# E. coli 250SJ1 (Tem7) = test: as above; assay type: cell-based; settings: compound at 5 mg/l, 24 hours at 37° C.; for MIC of Cefotaxime in combination with the compound: Trial 5, 250SJ1 E. coli Tem7; for MIC of Piperacillin in combination with the compound: Trial 5, 250SJ1 Tem7
# In short: as §1
# [3] = tested on: P. aeruginosa 391HT7 (PSE); test: as above; assay type: cell-based; settings: compound at 5 mg/l, 24 hours at 37° C.; for MIC of Cefotaxime in combination with the compound: Trial 11, 391HT7 P. aeruginosa PSE; for MIC of Piperacillin in combination with the compound: Trial 11, 391HT7 PSE
# In short: as §1
# [4] = tested on: P. aeruginosa 391HT8 (PSE); test: as above; assay type: cell-based; settings: compound at 5 mg/l, 24 hours at 37° C.; for MIC of Cefotaxime in combination with the compound: Trial 12, 391HT8 P. aeruginosa PSE; for MIC of Piperacillin in combination with the compound: Trial 12, 391HT8 PSE
# In short: as §1
# [5] = tested on: S. aureus 011GO66 (PeniR); test: as above; assay type: cell-based; settings: compound at 5 mg/l, 24 hours at 37° C.; for MIC of Cefotaxime in combination with the compound: Trial 1, 011GO66 S. aureus PeniR; for MIC of Piperacillin in combination with the compound: Trial 1, 011GO66 peniR
# In short: as §1
# Serratia 301HT6 = test: as above; assay type: cell-based; settings: compound at 5 mg/l; Trial 10, 301HT6 Serratia; 24 hours at 37° C.
# In short: as §1
Structure (SMILES),IC50 (β-lactamase TEM1) [nM],IC50 (β-lactamase P99) [nM],MIC of Cefotaxime in combination with the compound (E. coli 250CF1 (Tem3)) [µg/mL],MIC of Piperacillin in combination with the compound (E. coli 250CF1 (Tem3)) [µg/mL],MIC of Piperacillin in combination with the compound [1] [µg/mL],MIC of Cefotaxime in combination with the compound [1] [µg/mL],MIC of Cefotaxime in combination with the compound (E. coli 250BE1 (SHV4)) [µg/mL],MIC of Piperacillin in combination with the compound (E. coli 250BE1 (SHV4)) [µg/mL],MIC of Cefotaxime in combination with the compound (E. coli 250HT21 (Tem1)),MIC of Piperacillin in combination with the compound (E. coli 250HT21 (Tem1)) [µg/mL],MIC of Cefotaxime in combination with the compound (E. coli 250HT22 (Tem2)),MIC of Piperacillin in combination with the compound (E. coli 250HT22 (Tem2)) [µg/mL],MIC of Piperacillin in combination with the compound [2] [µg/mL],MIC of Cefotaxime in combination with the compound [2],MIC of Cefotaxime in combination with the compound (E. coli 250HT26 (SHV1)),MIC of Piperacillin in combination with the compound (E. coli 250HT26 (SHV1)) [µg/mL],MIC of Cefotaxime in combination with the compound (E. coli 250SJ1 (Tem7)),MIC of Piperacillin in combination with the compound (E. coli 250SJ1 (Tem7)) [µg/mL],MIC of Cefotaxime in combination with the compound [3] [µg/mL],MIC of Piperacillin in combination with the compound [3] [µg/mL],other results
"O=C(NCCc1ccccn1)[C@H]1CC[C@@H]2CN1C(=O)N2OS(=O)(=O)[O-].[Na+] (relative stereo) [Example 38, sodium salt of trans-7-oxo-N-[2-(2-pyridinyl)ethyl]-6-(sulphooxy)-1,6-diazabicyclo[3.2.1]octane-2-carboxamide]",35,77,0.3,20,40,20,0.3,>40,<=0.04 μg/ml,5,<=0.04 μg/ml,>40,>40,<=0.04 μg/ml,<=0.04 μg/ml,40,<=0.04 μg/ml,>40,40,>40,MIC of Cefotaxime in combination with the compound [4]: 40 µg/mL; MIC of Piperacillin in combination with the compound [4]: >40 µg/mL; MIC of Cefotaxime in combination with the compound [5]: 1.2 µg/mL; MIC of Piperacillin in combination with the compound [5]: 0.6 µg/mL; MIC of Cefotaxime in combination with the compound (Serratia 301HT6): 0.08 µg/mL; MIC of Piperacillin in combination with the compound (Serratia 301HT6): 1.2 µg/mL
"NC(=O)c1cccc(NC(=O)[C@H]2CC[C@@H]3CN2C(=O)N3OS(=O)(=O)[O-])c1.[Na+] (relative stereo) [Example 39, sodium salt of trans-N-[3-(aminocarbonyl)phenyl]-7-oxo-6-(sulphooxy)-1,6-diazabicyclo[3.2.1]octane-2-carboxamide]",31,50,0.08,40,20,1.2,0.08,20,<=0.04 μg/ml,2.5,<=0.04 μg/ml,20,10,<=0.04 μg/ml,<=0.04 μg/ml,40,<=0.04 μg/ml,>40,20,>40,MIC of Cefotaxime in combination with the compound [4]: 20 µg/mL; MIC of Piperacillin in combination with the compound [4]: >40 µg/mL; MIC of Cefotaxime in combination with the compound [5]: 2.5 µg/mL; MIC of Piperacillin in combination with the compound [5]: 1.2 µg/mL; MIC of Cefotaxime in combination with the compound (Serratia 301HT6): <=0.04 μg/ml; MIC of Piperacillin in combination with the compound (Serratia 301HT6): 0.6 µg/mL
"CN(C)c1ccc(NC(=O)[C@H]2CC[C@@H]3CN2C(=O)N3OS(=O)(=O)[O-])cc1.[Na+] (relative stereo) [Example 40, sodium salt of trans-N-[4-(dimethylamino)phenyl]-7-oxo-6-(sulphooxy)-1,6-diazabicyclo[3.2.1]octane-2-carboxamide]",51,96,0.6,>40,>40,>40,1.2,>40,<=0.04 μg/ml,10,<=0.04 μg/ml,>40,20,<=0.04 μg/ml,<=0.04 μg/ml,>40,0.15 µg/mL,>40,>40,>40,MIC of Cefotaxime in combination with the compound [4]: >40 µg/mL; MIC of Piperacillin in combination with the compound [4]: >40 µg/mL; MIC of Cefotaxime in combination with the compound [5]: 2.5 µg/mL; MIC of Piperacillin in combination with the compound [5]: 0.6 µg/mL; MIC of Cefotaxime in combination with the compound (Serratia 301HT6): 0.08 µg/mL; MIC of Piperacillin in combination with the compound (Serratia 301HT6): 1.2 µg/mL
"CN(C)c1cccc(NC(=O)[C@H]2CC[C@@H]3CN2C(=O)N3OS(=O)(=O)[O-])c1.[Na+] (relative stereo) [Example 41, sodium salt of trans-N-[3-(dimethylamino)phenyl]-7-oxo-6-(sulphooxy)-1,6-diazabicyclo[3.2.1]octane-2-carboxamide]",14,120,2.5,>40,>40,>40,>40,>40,<=0.04 μg/ml,40,<=0.04 μg/ml,>40,40,0.08 µg/mL,<=0.04 μg/ml,>40,0.6 µg/mL,>40,>40,>40,MIC of Cefotaxime in combination with the compound [4]: >40 µg/mL; MIC of Piperacillin in combination with the compound [4]: >40 µg/mL; MIC of Cefotaxime in combination with the compound [5]: 2.5 µg/mL; MIC of Piperacillin in combination with the compound [5]: 1.2 µg/mL; MIC of Cefotaxime in combination with the compound (Serratia 301HT6): 0.08 µg/mL; MIC of Piperacillin in combination with the compound (Serratia 301HT6): 1.2 µg/mL

# Reference: patent US7612087B2, “Heterocyclic compounds as inhibitors of beta-lactamases” (Novexel, priority 2002, dated 2009)
